The nature of the data set: Compatibility of piperaquine with the coacervation process (heating/cooling cycles; assay, Karl Fischer, XRPD). It is filed as physicochemical. The note with it: heating/cooling cycles mimicking the process. The protocol:
Water content: Karl Fischer titration: Ph. Eur. 2.5.12 Method; following sample titration conditions are applied: sample solvent: methanol: formamide 1:1; sample weight: 50 mg; the value of water content in a sample is expressed as % w/w. X-Ray Powder Diffraction (XRPD) measurements are performed on a Philips X′Pert PRO diffractometer (Bragg-Brentano geometry). A compatibility study is carried out on piperaquine to assess the compatibility of the drug with the coacervation process. In particular, piperaquine undergoes heating/cooling cycles mimicking thermal excursions of the process. Then, the following tests are performed both before and after thermal cycles to ascertain the stability of piperaquine: water content analysis (Karl Fisher test); effect of mechanical stress; crystalline structure by XRPD.

The results in this text go back to patent US9668979B2, “Piperaquine microcapsules and compositions containing them” (ADARE PHARMACEUTICALS S.R.L., priority 2013, dated 2017).

Regarding `Clc1ccc2c(N3CCN(CCCN4CCN(c5ccnc6cc(Cl)ccc56)CC4)CC3)ccnc2c1` [PQP•4H2O, 4,4′-(1,3-propanediyldi-4,1-piperazinediyl) bis(7-chloroquinoline) phosphate hydrate (1:4:4)], the “Effect of heating/cooling cycle on the drug” value is on record as “not affected by heating/cooling cycle”.
